{"source": "patent US20210395239A1", "about": "(Hoffmann-La Roche Inc., priority 2018, published 2021)"}
{"target": "T1, hTLR9 (Homo sapiens, UniProt Q9NR96)", "T1 sequence (Q9NR96 26-1032)": "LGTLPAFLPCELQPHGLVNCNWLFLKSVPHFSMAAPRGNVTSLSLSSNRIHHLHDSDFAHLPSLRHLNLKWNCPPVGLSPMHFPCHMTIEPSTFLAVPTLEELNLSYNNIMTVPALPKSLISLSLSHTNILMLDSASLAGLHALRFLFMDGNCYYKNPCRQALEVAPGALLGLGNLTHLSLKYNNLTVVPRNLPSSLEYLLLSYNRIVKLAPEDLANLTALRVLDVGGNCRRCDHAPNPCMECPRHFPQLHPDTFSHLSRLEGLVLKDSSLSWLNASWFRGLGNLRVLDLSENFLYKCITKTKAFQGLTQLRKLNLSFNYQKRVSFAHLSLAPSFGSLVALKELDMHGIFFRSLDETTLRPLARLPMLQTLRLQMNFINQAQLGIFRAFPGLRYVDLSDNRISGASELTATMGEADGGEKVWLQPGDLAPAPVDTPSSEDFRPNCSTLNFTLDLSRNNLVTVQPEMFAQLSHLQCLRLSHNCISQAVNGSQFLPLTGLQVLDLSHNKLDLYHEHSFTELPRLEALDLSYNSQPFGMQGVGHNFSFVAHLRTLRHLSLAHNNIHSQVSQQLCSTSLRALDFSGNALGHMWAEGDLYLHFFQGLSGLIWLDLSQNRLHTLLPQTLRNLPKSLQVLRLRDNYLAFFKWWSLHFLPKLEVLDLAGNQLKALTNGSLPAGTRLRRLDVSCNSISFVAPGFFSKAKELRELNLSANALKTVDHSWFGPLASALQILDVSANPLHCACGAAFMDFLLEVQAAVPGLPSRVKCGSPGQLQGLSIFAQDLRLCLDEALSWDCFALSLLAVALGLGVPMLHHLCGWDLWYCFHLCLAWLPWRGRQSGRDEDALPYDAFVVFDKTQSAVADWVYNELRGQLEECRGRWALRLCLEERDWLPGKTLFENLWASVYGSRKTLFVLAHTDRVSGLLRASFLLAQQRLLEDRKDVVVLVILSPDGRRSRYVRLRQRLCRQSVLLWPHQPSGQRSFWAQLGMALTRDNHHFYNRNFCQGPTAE", "assay": "HEK293-Blue-hTLR-9 cells assay (SEAP reporter, ODN2006 stimulation)", "format": "cell-based", "design": "host or cells: HEK293 (HEK-Blue hTLR9)", "settings": "HEK293-Blue-hTLR9 cells, ODN2006, 20 hrs; read-out: HEK/hTLR9 IC50", "in_short": "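Antagonism read as lowered SEAP reporter absorbance (620–655 nm, QUANTI-Blue, 2 h, 37 °C) in supernatants. Before that, ODN2006-stimulated HEK293-Blue cells stably expressing human TLR9 were exposed to compound dilutions at 1% final DMSO for 20 h at 37 °C.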", "units": {"IC50": "nM"}}
{"smiles": "Cc1cc(N2CCN(C[C@H]3CN(c4ccc(C#N)c5ncccc45)C[C@@H](C)O3)CC2)nc(N2C[C@H](N)C[C@H](F)C2)n1", "note": "(relative stereo) [Example 74, 5-[(2R,6S)-2-methyl-6-[[4-[6-methyl-2-[cis-3-amino-5-fluoro-1-piperidyl]pyrimidin-4-yl]piperazin-1-yl]methyl]morpholin-4-yl]quinoline-8-carbonitrile]", "IC50": 72}
{"smiles": "Cc1cc(N2CCN(C[C@H]3CN(c4ccc(C#N)c5ncccc45)C[C@@H](C)O3)CC2)nc(N2C[C@H](N)C[C@@H](F)C2)n1", "note": "(relative stereo) [Example 75, 5-[(2R,6S)-2-methyl-6-[[4-[6-methyl-2-[trans-3-amino-5-fluoro-1-piperidyl]pyrimidin-4-yl]piperazin-1-yl]methyl]morpholin-4-yl]quinoline-8-carbonitrile]", "IC50": 57}
{"smiles": "CO[C@H]1CN(c2nc(C)cc(N3CCN(C[C@H]4CN(c5ccc(C#N)c6ncccc56)C[C@@H](C)O4)CC3)n2)C[C@@H]1N", "note": "(single isomer, unassigned) [Example 69A]", "IC50": 54}
{"smiles": "CO[C@@H]1CN(c2nc(C)cc(N3CCN(C[C@H]4CN(c5ccc(C#N)c6ncccc56)C[C@@H](C)O4)CC3)n2)C[C@H]1N", "note": "(single isomer, unassigned) [Example 69B]", "IC50": 70}
{"smiles": "Cc1cc(N2CCN(C[C@H]3CN(c4ccc(C#N)c5ncccc45)C[C@@H](C)O3)CC2)nc(N2CC[C@@H](F)C(N)C2)n1", "note": "(single isomer, unassigned) [Example 84]", "IC50": 104}
{"smiles": "COC1CN(c2nc(C)cc(N3CCN(C[C@H]4CN(c5ccc(C#N)c6ncccc56)C[C@@H](C)O4)CC3)n2)CC1N", "note": "(single isomer, unassigned) [Example 88]", "IC50": 71}
{"smiles": "COC1CNCC1Nc1nc(C)cc(N2CCN(C[C@H]3CN(c4ccc(C#N)c5ncccc45)C[C@@H](C)O3)CC2)n1", "note": "(stereo in doubt) [Example 70, 5-[(2S,6R)-2-[[4-[2-[[(3R,4R)-4-methoxypyrrolidin-3-yl]amino]-6-methyl-pyrimidin-4-yl]piperazin-1-yl]methyl]-6-methyl-morpholin-4-yl]quinoline-8-carbonitrile]", "IC50": 80}
{"smiles": "Cc1cc(N2CCN(C[C@H]3CN(c4ccc(C#N)c5ncccc45)C[C@@H](C)O3)CC2)nc(NC2CNCC2F)n1", "note": "(stereo in doubt) [Example 73, 5-[(2S,6R)-2-[[4-[2-[[(3S,4R)-4-fluoropyrrolidin-3-yl]amino]-6-methyl-pyrimidin-4-yl]piperazin-1-yl]methyl]-6-methyl-morpholin-4-yl]quinoline-8-carbonitrile]", "IC50": 69}
{"smiles": "Cc1cc(N2CCN(C[C@H]3CN(c4ccc(C#N)c5ncccc45)C[C@@H](C)O3)CC2)nc(N2CC[C@@H](N)C(F)C2)n1", "note": "(stereo in doubt) [Example 82, 5-[(2S,6R)-2-[[4-[2-[(3R,4R)-4-amino-3-fluoro-1-piperidyl]-6-methyl-pyrimidin-4-yl]piperazin-1-yl]methyl]-6-methyl-morpholin-4-yl]quinoline-8-carbonitrile]", "IC50": 56}
{"smiles": "CO[C@H]1CN(c2nc(C)cc(N3CCN(C[C@H]4CN(c5ccc(C#N)c6ncccc56)C[C@@H](C)O4)CC3)n2)CCC1N", "note": "(stereo in doubt) [Example 90, 5-[(2S,6R)-2-[[4-[2-[(3S,4S)-4-amino-3-methoxy-1-piperidyl]-6-methyl-pyrimidin-4-yl]piperazin-1-yl]methyl]-6-methyl-morpholin-4-yl]quinoline-8-carbonitrile]", "IC50": 54}
{"smiles": "Cc1cc(N2CCN(C[C@H]3CN(c4ccc(C#N)c5ncccc45)C[C@@H](C)O3)CC2)nc(N[C@@H]2CNC[C@@H]2F)n1", "note": "[Example 71, 5-[(2S,6R)-2-[[4-[2-[[(3R,4S)-4-fluoropyrrolidin-3-yl]amino]-6-methyl-pyrimidin-4-yl]piperazin-1-yl]methyl]-6-methyl-morpholin-4-yl]quinoline-8-carbonitrile]", "IC50": 66}
{"smiles": "CO[C@@H]1CN(c2nc(C)cc(N3CCN(C[C@H]4CN(c5ccc(C#N)c6ncccc56)C[C@@H](C)O4)CC3)n2)C[C@@H]1N", "note": "[Example 72, 5-[(2S,6R)-2-[[4-[2-[(3S,4R)-3-amino-4-methoxy-pyrrolidin-1-yl]-6-methyl-pyrimidin-4-yl]piperazin-1-yl]methyl]-6-methyl-morpholin-4-yl]quinoline-8-carbonitrile]", "IC50": 46}
{"smiles": "Cc1cc(N2CCN(C[C@H]3CN(c4ccc(C#N)c5ncccc45)C[C@@H](C)O3)CC2)nc(N[C@@H]2CNC[C@H]2F)n1", "note": "[Example 76, 5-[(2S,6R)-2-[[4-[2-[[(3R,4R)-4-fluoropyrrolidin-3-yl]amino]-6-methyl-pyrimidin-4-yl]piperazin-1-yl]methyl]-6-methyl-morpholin-4-yl]quinoline-8-carbonitrile]", "IC50": 50}
{"smiles": "Cc1cc(N2CCN(C[C@H]3CN(c4ccc(C#N)c5ncccc45)C[C@@H](C)O3)CC2)nc(N2C[C@@H](N)C[C@@H](F)C2)n1", "note": "[Example 77, 5-[(2S,6R)-2-[[4-[2-[(3S,5R)-3-amino-5-fluoro-1-piperidyl]-6-methyl-pyrimidin-4-yl]piperazin-1-yl]methyl]-6-methyl-morpholin-4-yl]quinoline-8-carbonitrile]", "IC50": 56}
{"smiles": "Cc1cc(N2CCN(C[C@H]3CN(c4ccc(C#N)c5ncccc45)C[C@@H](C)O3)CC2)nc(N2CC[C@@H](N)[C@@H](F)C2)n1", "note": "[Example 78, 5-[(2S,6R)-2-[[4-[2-[(3S,4R)-4-amino-3-fluoro-1-piperidyl]-6-methyl-pyrimidin-4-yl]piperazin-1-yl]methyl]-6-methyl-morpholin-4-yl]quinoline-8-carbonitrile]", "IC50": 65}
{"smiles": "Cc1cc(N2CCN(C[C@H]3CN(c4ccc(C#N)c5ncccc45)C[C@@H](C)O3)CC2)nc(N2C[C@@H](N)[C@H](F)C2)n1", "note": "[Example 79, 5-[(2S,6R)-2-[[4-[2-[(3R,4R)-3-amino-4-fluoro-pyrrolidin-1-yl]-6-methyl-pyrimidin-4-yl]piperazin-1-yl]methyl]-6-methyl-morpholin-4-yl]quinoline-8-carbonitrile]", "IC50": 63}
{"smiles": "Cc1cc(N2CCN(C[C@H]3CN(c4ccc(C#N)c5ncccc45)C[C@@H](C)O3)CC2)nc(N2CC(N)CC(F)(F)C2)n1", "note": "(stereo partly drawn) [Example 80, 5-[(2S,6R)-2-[[4-[2-(5-amino-3,3-difluoro-1-piperidyl)-6-methyl-pyrimidin-4-yl]piperazin-1-yl]methyl]-6-methyl-morpholin-4-yl]quinoline-8-carbonitrile]", "IC50": 120}
{"smiles": "Cc1cc(N2CCN(C[C@H]3CN(c4ccc(C#N)c5ncccc45)C[C@@H](C)O3)CC2)nc(N2CCNC(C(C)(C)O)C2)n1", "note": "(stereo partly drawn) [Example 81, 5-[(2S,6R)-2-[[4-[2-[3-(1-hydroxy-1-methyl-ethyl)piperazin-1-yl]-6-methyl-pyrimidin-4-yl]piperazin-1-yl]methyl]-6-methyl-morpholin-4-yl]quinoline-8-carbonitrile]", "IC50": 46}
{"smiles": "Cc1cc(N2CCN(C[C@H]3CN(c4ccc(C#N)c5ncccc45)C[C@@H](C)O3)CC2)nc(N2CC[C@@H](F)[C@@H](N)C2)n1", "note": "[Example 83, 5-[(2R,6S)-2-methyl-6-[[4-[6-methyl-2-[(3S,4R)-3-amino-4-fluoro-1-piperidyl]-pyrimidin-4-yl]piperazin-1-yl]methyl]morpholin-4-yl]quinoline-8-carbonitrile]", "IC50": 96}
{"smiles": "Cc1cc(N2CCN(C[C@H]3CN(c4ccc(C#N)c5ncccc45)C[C@@H](C)O3)CC2)nc(N2CCC(N)C(F)(F)C2)n1", "note": "(stereo partly drawn) [Example 86, 5-[(2S,6R)-2-[[4-[2-(4-amino-3,3-difluoro-1-piperidyl)-6-methyl-pyrimidin-4-yl]piperazin-1-yl]methyl]-6-methyl-morpholin-4-yl]quinoline-8-carbonitrile]", "IC50": 189}
{"smiles": "Cc1cc(N2CCN(C[C@H]3CN(c4ccc(C#N)c5ncccc45)C[C@@H](C)O3)CC2)nc(N2CC(N)C2)n1", "note": "[Example 87, 5-[(2S,6R)-2-[[4-[2-(3-aminoazetidin-1-yl)-6-methyl-pyrimidin-4-yl]piperazin-1-yl]methyl]-6-methyl-morpholin-4-yl]quinoline-8-carbonitrile]", "IC50": 75}
{"smiles": "C[C@@H]1CN(c2ccc(C#N)c3ncccc23)C[C@H](CN2CCN(c3ccccc3C3CNCCO3)CC2)O1", "note": "(stereo partly drawn) [Example 89, 5-[(2R,6S)-2-methyl-6-[[4-(2-morpholin-2-ylphenyl)piperazin-1-yl]methyl]morpholin-4-yl]quinoline-8-carbonitrile]", "IC50": 99}
